Test results: US20180188338A1, “Nuclear Spin Polarization Enhancing Method Through Dynamic Nuclear Polarization by Using Soluble Pentacene” (RIKEN, priority 2015, published 2018)

Experiment: confirmation of dissolution of the pentacene derivative in the solvent
Type: physicochemical
Procedure: Herein, all samples are compositions containing no test compound and including the pentacene derivative and/or the salt thereof and the solvent.
6,13-Diphenylpentacene (0.4 mg, produced by Sigma-Aldrich Co., Ltd.) represented by the following formula was prepared as the pentacene derivative represented by formula (A), and dissolved in a mixed liquid of water and deuterated ethanol (2 mL, pure water:ethanol=1:9% by mass) as the solvent, thereby preparing a sample.
6,13-Diphenylpentacene (0.5 mg) represented by the above formula, as the pentacene derivative represented by formula (A), was dissolved in a mixed liquid of benzene and polystyrene (1 mL, benzene:polystyrene=5:5% by mass) as the solvent, thereby preparing a sample.
(§1) 6,13-Diphenylpentacene (0.5 mg) represented by the above formula, as the pentacene derivative represented by formula (A), was dissolved in a mixed liquid of benzene and deuterated toluene (1 mL, benzene:deuterated toluene=1:9% by mass) as the solvent, thereby preparing a sample.
as §1, with “6,13-Dibiphenylpentacene (0.4 mg, produced by Luminescence Technology Crop.)” for “6,13-Diphenylpentacene (0.5 mg)”, “following” for “above”, “(2” for “(1”
(§2) 6,13-Bis[(triethylsilyl)ethynyl]pentacene (0.4 mg, produced by Sigma-Aldrich Co., Ltd.) represented by the following formula, as the pentacene derivative represented by formula (A), was dissolved in a mixed liquid of benzene and polystyrene (2 mL, benzene:polystyrene=5:5% by mass) as the solvent, thereby preparing a sample.
as §2, with “6,13-Bis[(triisopropylsilyl)ethynyl]pentacene” for “6,13-Bis[(triethylsilyl)ethynyl]pentacene”, “Tokyo Chemical Industry” for “Sigma-Aldrich”
Pentacene (0.4 mg, produced by Sigma-Aldrich Co., Ltd.) represented by the following formula, and a mixed liquid of benzene and deuterated toluene (2 mL, benzene:deuterated toluene=1:9% by mass) as the solvent were mixed, thereby preparing a composition for NMR measurement.

[1] = 0.4 mg in 2 mL mixed liquid of benzene and polystyrene (5:5 by mass)
[2] = 0.4 mg in 2 mL mixed liquid of benzene and deuterated toluene (1:9 by mass)

Compound	dissolution in the solvent [1]	dissolution in the solvent [2]	other results
CC[Si](C#Cc1c2cc3ccccc3cc2c(C#C[Si](CC)(CC)CC)c2cc3ccccc3cc12)(CC)CC [6,13-bis[(triethylsilyl)ethynyl]pentacene]	completely dissolved	–	–
CC(C)[Si](C#Cc1c2cc3ccccc3cc2c(C#C[Si](C(C)C)(C(C)C)C(C)C)c2cc3ccccc3cc12)(C(C)C)C(C)C [6,13-bis[(triisopropylsilyl)ethynyl]pentacene]	completely dissolved	–	–
c1ccc(-c2ccc(-c3c4cc5ccccc5cc4c(-c4ccc(-c5ccccc5)cc4)c4cc5ccccc5cc34)cc2)cc1 [6,13-dibiphenylpentacene]	–	completely dissolved	–
c1ccc(-c2c3cc4ccccc4cc3c(-c3ccccc3)c3cc4ccccc4cc23)cc1 [6,13-diphenylpentacene]	–	–	dissolution in the solvent (0.4 mg in 2 mL mixed liquid of water and deuterated ethanol (1:9 by mass)): completely dissolved; dissolution in the solvent (0.5 mg in 1 mL mixed liquid of benzene and deuterated toluene (1:9 by mass)): completely dissolved; dissolution in the solvent (0.5 mg in 1 mL mixed liquid of benzene and polystyrene (5:5 by mass)): completely dissolved
c1ccc2cc3cc4cc5ccccc5cc4cc3cc2c1 [pentacene, Pentacene]	–	not almost dissolved	–
